These results are taken from patent publication US10822345B2 (4SC AG, priority 2015, dated 2020).

Chain of Kv1.3 (P22001 whole entry): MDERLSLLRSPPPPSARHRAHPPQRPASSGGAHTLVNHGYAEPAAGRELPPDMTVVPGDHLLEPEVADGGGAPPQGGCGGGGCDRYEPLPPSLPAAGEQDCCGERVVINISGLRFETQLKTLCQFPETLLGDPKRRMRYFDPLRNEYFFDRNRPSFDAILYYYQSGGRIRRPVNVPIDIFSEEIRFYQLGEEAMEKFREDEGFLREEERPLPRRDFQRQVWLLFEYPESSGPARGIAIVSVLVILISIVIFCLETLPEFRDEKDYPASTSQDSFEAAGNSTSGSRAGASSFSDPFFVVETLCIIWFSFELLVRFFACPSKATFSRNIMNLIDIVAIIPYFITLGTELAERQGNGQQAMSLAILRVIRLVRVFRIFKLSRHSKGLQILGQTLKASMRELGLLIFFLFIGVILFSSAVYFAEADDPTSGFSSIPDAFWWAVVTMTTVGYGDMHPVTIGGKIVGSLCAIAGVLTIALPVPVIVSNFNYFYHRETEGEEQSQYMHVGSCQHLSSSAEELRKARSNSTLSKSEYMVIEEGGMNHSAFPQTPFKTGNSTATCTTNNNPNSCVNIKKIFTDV

One assay has as its target Kv1.3 (Homo sapiens (Human), UniProt P22001). Nature of the assay: Patch-clamp assay for inhibitory activity on Kv1.3 (whole cell recording). As to conditions: n≥2 per concentration, three or more concentrations. Type of assay: cell-based. The protocol: Patch-Clamp Assay for Inhibitory Activity on Kv1.3
For a description of a Kv1.3 patch-clamp assay, see Grissmer et al., Mol. Pharmacol. 1994, 45, 1227; whole cell patch-clamp recording was performed with n≥2 individual experiments at each compound concentration using different cells. Three or more different concentrations were determined per dose response curve.
For `Cc1c(-c2ccccc2Cl)c2cc3c(C)coc3c(C)c2oc1=O` [Example 11, 5-(2-chlorophenyl)-3,6,9-trimethyl-7H-furo[3,2-g]chromen-7-one], the IC50 was ≤ 500 nM.
`Cc1c(-c2ccccc2)c2cc3c(C)c(C#N)oc3c(C)c2oc1=O` [Example 45] displayed an IC50 of 1500 to 3000 nM.
On the same count and under the same terms, the figure for `Cc1c(-c2ccccc2)c2cc3c(C)coc3c(C)c2[nH]c1=O` [Example 31, 3,6,9-trimethyl-5-phenylfuro[3,2-g]quinolin-7(8H)-one] is ≤ 500 nM; for `Cc1c(-c2ccccc2F)c2cc3c(C)coc3c(C)c2n(C)c1=O` [Example 61, 5-(2-fluorophenyl)-3,6,8,9-tetramethylfuro[3,2-g]quinolin-7(8H)-one] it is ≤ 500 nM; for `Cc1c(-c2ccccc2)c2cc3c(C)csc3c(C)c2oc1=O` [Example 43, 3,6,9-trimethyl-4-phenyl-2H-thieno[3,2-g]chromen-2-one] it is ≤ 500 nM.
Still for that read-out and setting: for `COc1ccccc1-c1c(C)c(=O)oc2c(C)c3occ(C)c3cc12` [Example 7, 5-(2-methoxyphenyl)-3,6,9-trimethyl-7H-furo[3,2-g]chromen-7-one] the value was ≤ 500 nM; for `Cc1c(-c2cccnc2)c2cc3c(C)coc3c(C)c2[nH]c1=O` [Example 54, 3,6,9-trimethyl-5-(pyridin-3-yl)furo[3,2-g]quinolin-7(8H)-one], ≤ 500 nM.
As for `Cc1c(-c2cccnc2)c2cc3c(C)coc3c(C)c2oc1=O` [Example 53, 3,6,9-trimethyl-5-(pyridin-3-yl)-7H-furo[3,2-g]chromen-7-one], the IC50 was ≤ 500 nM.
Regarding `Cc1coc2c(C)c3c(cc12)c(-c1ccccc1)c(Br)c(=O)n3C` [Example 33, 6-bromo-3,8,9-trimethyl-5-phenylfuro[3,2-g]quinolin-7(8H)-one], the IC50 is ≤ 500 nM.
The same measure, in the same setting: the figure for `COc1ccccc1-c1cc(=O)oc2c(C)c3occ(C)c3cc12` [Example 1, 5-(2-methoxyphenyl)-3,9-dimethyl-7H-furo[3,2-g]chromen-7-one] is ≤ 500 nM; for `Cc1c(-c2ccccc2)c2cc3c(C)coc3nc2oc1=O` [Example 25, 3,6-dimethyl-5-phenyl-7H-furo[2,3-b]pyrano[3,2-e]pyridin-7-one] it is ≤ 500 nM; for `Cc1coc2c(C)c3[nH]c(=O)c(Br)c(-c4ccccc4)c3cc12` [Example 26, 6-bromo-3,9-dimethyl-5-phenylfuro[3,2-g]quinolin-7(8H)-one] it is ≤ 500 nM.
For `Cc1c(-c2ccccc2)c2cc3c(C)noc3c(C)c2[nH]c1=O` [Example 36, 3,6,9-trimethyl-5-phenylisoxazolo[4,5-g]quinolin-7(8H)-one], the IC50 is ≤ 500 nM.
As for `Cc1c(-c2ccccc2F)c2cc3c(C)coc3c(C)c2oc1=O` [Example 5, 5-(2-fluorophenyl)-3,6,9-trimethyl-7H-furo[3,2-g]chromen-7-one], the IC50 is ≤ 500 nM.
On the same count and under the same terms, the figure for `CCOc1ccccc1-c1c(C)c(=O)oc2c(C)c3occ(C)c3cc12` [Example 10, 5-(2-ethoxyphenyl)-3,6,9-trimethyl-7H-furo[3,2-g]chromen-7-one] is ≤ 500 nM.
Same read-out and setting: for `COc1ncccc1-c1c(C)c(=O)oc2c(C)c3occ(C)c3cc12` [Example 62, 5-(2-methoxypyridin-3-yl)-3,6,9-trimethyl-7H-furo[3,2-g]chromen-7-one] the value was 501 to 1500 nM.
As for `Cc1c(-c2ccccc2)c2cc3c(C)coc3nc2n(C)c1=O` [Example 49, 3,6,8-trimethyl-5-phenylfuro[2,3-b][1.8]naphthyridin-7(8H)-one], the half-maximal inhibitory concentration (IC50) is ≤ 500 nM.
Still for that read-out and setting: for `Cc1c(-c2ccccc2Cl)c2cc3c(C)coc3c(C)c2[nH]c1=O` [Example 40, 5-(2-chlorophenyl)-3,6,9-trimethylfuro[3,2-g]quinolin-7(8H)-one] the value was ≤ 500 nM; for `Cc1c(-c2ccccc2)c2cc3c(C)coc3c(C)c2oc1=O` [Example 9, 3,6,9-trimethyl-5-phenyl-7H-furo[3,2-g]chromen-7-one], ≤ 500 nM; for `Cc1coc2c(C)c3oc(=O)cc(-c4ccccc4F)c3cc12` [Example 8, 5-(2-fluorophenyl)-3,9-dimethyl-7H-furo[3,2-g]chromen-7-one], ≤ 500 nM.
On to `Cc1c2oc(=O)cc(-c3ccccc3)c2cc2c(C3CC3)coc12` [Example 41, 3-cyclopropyl-9-methyl-5-phenyl-7H-furo[3,2-g]chromen-7-one], for which the concentration for half-maximal inhibition (IC50) is ≤ 500 nM.
Same read-out and setting: the figure for `Cc1coc2c(C)c3[nH]c(=O)c(Br)c(-c4ccccc4F)c3cc12` [Example 27, 6-bromo-5-(2-fluorophenyl)-3,9-dimethylfuro[3,2-g]quinolin-7(8H)-one] is 501 to 1500 nM.
Regarding `CCc1coc2c(C)c3oc(=O)c(C)c(-c4ccccc4)c3cc12` [Example 16, 3-ethyl-6,9-dimethyl-5-phenyl-7H-furo[3,2-g]chromen-7-one], the IC50 is ≤ 500 nM.
Regarding `Cc1c(-c2ccccc2Cl)c2cc3c(C)coc3c(C)c2n(C)c1=O` [Example 60, 5-(2-chlorophenyl)-3,6,8,9-tetramethylfuro[3,2-g]quinolin-7(8H)-one], the 50% inhibitory concentration (IC50) was ≤ 500 nM.
For `Cc1c(-c2ccccc2F)c2cc3c(C)coc3c(C)c2[nH]c1=O` [Example 30, 5-(2-fluorophenyl)-3,6,9-trimethylfuro[3,2-g]quinolin-7(8H)-one], the half-maximal inhibitory concentration (IC50) was ≤ 500 nM.
Same read-out and setting: the figure for `Cc1c(-c2ccccc2)c2cc3c(C)coc3c(C)c2n(C)c1=O` [Example 34, 3,6,8,9-tetramethyl-5-phenylfuro[3,2-g]quinolin-7(8H)-one] is ≤ 500 nM.

The next assay has as its system female Dark Agouti rats. The experiment in a line: Pristane-induced arthritis (PIA) model. Type of assay: in vivo, rat. As to conditions: MTX 0.05 mg/kg i.p., sid, DAY16 to DAY30; maximum AI=16; controls AI around 14; p=0.001. The protocol: Pristane-Induced Arthritis (PIA) Model
Arthritis was induced in female Dark Agouti rats by intradermal injection of 150 μL/rat pristane into the base of the tail on DAY0, according to Vingsbo et al., Am. J. Pathol. 1996, 149, 1675. Compound treatment was started on DAY16 and continued until DAY30, dosing Example 53 at 60 mg/kg, p.o., sid, and Example 34 at 45 mg/kg, p.o., bid, each in a lipophilic formulation. As a positive control, methotrexate (MTX) was dosed i.p., sid, with 0.05 mg/kg, also starting DAY16. Arthritis development was monitored daily by a macroscopic scoring system for the four limbs ranging from 0 to 4 (0=no visible effects of arthritis; 1=edema and/or erythema of one digit; 2=edema and/or erythema of two joints; 3=edema and/or erythema of more than two joints; 4=severe arthritis of the entire paw and digits, associated with ankylosis and deformity of the paw.), resulting in an Arthritic Index (AI) reflecting the sum of scores of all 4 limbs per rat (maximum AI=16).
Disease induction in saline-treated and vehicle-treated control animals reached a maximum of AI around 14.
In the case of `CN(Cc1cnc2nc(N)nc(N)c2n1)c1ccc(C(=O)N[C@@H](CCC(=O)O)C(=O)O)cc1` [MTX, methotrexate], the “Arthritic Index (AI)” value is recorded as ~8.7.

Broadly, the IC50 is the point on the concentration scale where inhibition reaches its midpoint. High values mean a need for much substance, low ones inhibition by little substance.
